The target in one test is T1, 5-HT transporter (Rattus norvegicus, UniProt P31652).
T1 construct: from tissue; host or cells: rat medulla and pons synaptosomes (P2 fraction)
Put plainly: 5-HT uptake inhibition in rat brain synaptosomes (medulla and pons). The format is biochemical. From the text:
(§1) I. Method for Determining Noradrenalin and 5-HT Uptake Inhibition:
(§2) Synaptosomes from rat brain regions are freshly isolated for in vitro studies, as described in the publication “The isolation of nerve endings from brain” by E. G. Gray and V. P. Whittaker, J. Anatomy 96, pages 79-88, 1962. The corresponding literature description is hereby introduced as a reference and is deemed to be part of the disclosure.
(§3) The tissue (hypothalamus for the determination of noradrenalin uptake inhibition and medulla and pons for the determination of 5-HT uptake inhibition) is homogenised in ice-cooled 0.32 M sucrose (100 mg of tissue/1 mL) in a glass homogeniser with Teflon pestle using five complete up and down strokes at 840 revolutions/minute.
(§4) The homogenate is centrifuged at 4° C. for 10 minutes at 1000 g. After subsequent centrifugation at 17000 g for 55 minutes, the synaptosomes (P2 fraction) are obtained, which are resuspended in 0.32 M […] (0.5 mL/100 mg of original weight).
(§5) The particular uptake is measured in a 96-well microtitre plate. The volume is 250 μl and the incubation proceeds at room temperature (approx. 20-25° C.) under an O2 atmosphere.
(§6) The incubation time is 7.5 minutes for [^3H]-NA and 5 minutes for [^3H]-5-HT.
(§7) The 96 samples are then filtered through a Unifilter GF/B microtitre plate (Packard) and washed with 200 mL of incubated buffer using a “Brabdel MPXRI-96T Cell-Harvester”. The Unifilter GF/B plate is dried for 1 hour at 55° C. The plate is then sealed with a Back seal (Packard) and 35 μl of scintillation fluid are added per well (Ultima Gold, Packard). After sealing with a top seal (Packard) and establishing an equilibrium (around 5 hours), radioactivity is determined in a “Trilux 1450 Microbeta” (Wallac).
(§8) The quantity of protein used in the above determination corresponds to the values known from the literature, as for example described in “Protein measurement with the folin phenol reagent”, Lowry et al., J. Biol. Chem., 193, 265-275, 1951.
(§9) A detailed description of the method may additionally be found in the literature, for example in M. Ch. Frink, H.-H. Hennies, W. Engelberger, M. Haurand and B. Wilffert (1996) Arzneim.-Forsch./Drug Res. 46 (III), 11, 1029-1036.
(§10) The corresponding literature descriptions are hereby introduced in each case as a reference and are deemed to be part of the present disclosure.
(§11) The following characteristics were determined for the NA or 5-HT transporter: […]

A further test deals with T2, NA transporter (Rattus norvegicus, UniProt Q63380).
T2 construct: from tissue; host or cells: rat hypothalamus synaptosomes (P2 fraction)
Description: Noradrenalin uptake inhibition in rat brain synaptosomes (hypothalamus). The format is biochemical.
Excerpt: as §1, §2, §3, §4, §5, §6, §7, §8, §9, §10, §11

T2 sequence (Q63380 1-617): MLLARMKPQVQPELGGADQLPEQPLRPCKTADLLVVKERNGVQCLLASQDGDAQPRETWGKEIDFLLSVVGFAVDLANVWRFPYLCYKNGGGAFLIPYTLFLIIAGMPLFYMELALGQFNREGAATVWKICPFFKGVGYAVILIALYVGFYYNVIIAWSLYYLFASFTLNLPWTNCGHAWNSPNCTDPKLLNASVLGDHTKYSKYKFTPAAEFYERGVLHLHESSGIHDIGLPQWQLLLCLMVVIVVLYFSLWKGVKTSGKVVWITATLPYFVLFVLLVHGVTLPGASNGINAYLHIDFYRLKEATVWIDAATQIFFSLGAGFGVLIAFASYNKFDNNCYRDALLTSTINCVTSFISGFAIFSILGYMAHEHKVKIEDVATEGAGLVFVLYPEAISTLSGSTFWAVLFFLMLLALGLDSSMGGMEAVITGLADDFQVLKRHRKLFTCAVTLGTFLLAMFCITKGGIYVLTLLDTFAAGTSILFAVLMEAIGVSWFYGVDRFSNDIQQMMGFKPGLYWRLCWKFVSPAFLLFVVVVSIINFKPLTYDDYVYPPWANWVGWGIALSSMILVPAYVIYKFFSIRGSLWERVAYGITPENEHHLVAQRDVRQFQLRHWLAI
T1 sequence (P31652 whole entry): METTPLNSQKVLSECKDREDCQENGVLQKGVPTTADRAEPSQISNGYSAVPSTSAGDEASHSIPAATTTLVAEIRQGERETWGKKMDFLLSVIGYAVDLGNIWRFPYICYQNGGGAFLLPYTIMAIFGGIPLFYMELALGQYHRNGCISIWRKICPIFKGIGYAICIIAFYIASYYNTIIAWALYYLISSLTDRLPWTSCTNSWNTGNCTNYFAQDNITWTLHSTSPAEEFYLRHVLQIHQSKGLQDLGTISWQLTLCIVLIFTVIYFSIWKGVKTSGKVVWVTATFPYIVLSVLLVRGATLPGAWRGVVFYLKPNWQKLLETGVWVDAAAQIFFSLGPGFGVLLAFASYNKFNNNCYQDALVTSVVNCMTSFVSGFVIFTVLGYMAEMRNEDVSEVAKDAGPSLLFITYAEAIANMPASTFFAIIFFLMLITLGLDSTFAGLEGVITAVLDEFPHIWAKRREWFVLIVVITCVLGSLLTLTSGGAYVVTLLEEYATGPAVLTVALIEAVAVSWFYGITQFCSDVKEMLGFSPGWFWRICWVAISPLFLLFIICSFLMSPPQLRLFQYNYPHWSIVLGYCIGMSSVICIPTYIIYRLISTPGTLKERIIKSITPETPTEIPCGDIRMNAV

At 5-HT transporter, `O=C(Nc1ncc2c(n1)CCN(C(=O)c1cc(F)cc3c1OCOC3)C2)c1ccccc1C(F)(F)F` [Example 103, N-[6-(6-fluoro-4H-benzo[1,3]dioxin-8-carbonyl)-5,6,7,8-tetrahydro-pyrido[4,3-d]pyrimidin-2-yl]-2-trifluoromethyl-benzamide] yielded an inhibition at 1 µM of 65%.

The compound `O=C(Nc1ncc2c(n1)CCN(C(=O)c1cccc(F)c1)C2)c1cccc2ccccc12` [Example 183, naphthalene-1-carboxylic acid [6-(3-fluoro-benzoyl)-5,6,7,8-tetrahydro-pyrido[4,3-d]pyrimidin-2-yl]-amide] registered an inhibition at 10 µM at NA transporter of 63%.

For the compound `O=C(Nc1ncc2c(n1)CCN(C(=O)c1ccc3ccccc3c1)C2)c1ccc(Cl)cc1` [Example 69], the “NA uptake, rat, 10 μM, % inhibition” value on NA transporter is on record as 73%. Besides, at 5-HT transporter, the “5-HT uptake, rat, 1 μM, % inhibition” value is given as 70%.

For the compound `O=C(Nc1ncc2c(n1)CCN(C(=O)c1ccc(-c3cccs3)cc1)C2)c1cc(Cl)cc(Cl)c1` [Example 144, 3,5-dichloro-N-[6-(4-thiophen-2-yl-benzoyl)-5,6,7,8-tetrahydro-pyrido[4,3-d]pyrimidin-2-yl]-benzamide], the inhibition at 10 µM against NA transporter worked out at 67%. The compound also showed an inhibition at 1 µM at 5-HT transporter of 42%.

In turn, `O=C(Nc1ncc2c(n1)CCN(C(=O)c1ccc(OC(F)(F)F)cc1)C2)c1cc(Cl)cc(Cl)c1` [Example 192, 3,5-dichloro-N-[6-(4-trifluoromethoxy-benzoyl)-5,6,7,8-tetrahydro-pyrido[4,3-d]pyrimidin-2-yl]-benzamide] registered an inhibition at 10 µM against NA transporter of 73%. The compound also gave an inhibition at 1 µM against 5-HT transporter of 47%.

On NA transporter, `CCc1ccc(C(=O)Nc2ncc3c(n2)CCN(S(=O)(=O)c2ccsc2)C3)cc1` [Example 121, 4-ethyl-N-[6-(thiophene-3-sulfonyl)-5,6,7,8-tetrahydro-pyrido[4,3-d]pyrimidin-2-yl]-benzamide] came in with an inhibition at 10 µM of 92%. This compound also came in with an inhibition at 1 µM against 5-HT transporter of 52%.

The compound `O=C(Nc1ncc2c(n1)CCN(C(=O)Cc1c(Cl)cccc1Cl)C2)c1cccc(Cl)c1` [Example 187, 3-chloro-N-{6-[2-(2,6-dichloro-phenyl)-acetyl]-5,6,7,8-tetrahydro-pyrido[4,3-d]pyrimidin-2-yl}-benzamide] gave an inhibition at 10 µM at NA transporter of 100%. On 5-HT transporter, the inhibition at 1 µM stood at 29%.

In turn, `CCCC(=O)Nc1ncc2c(n1)CCC(NS(=O)(=O)c1ccc(C(C)(C)CC)cc1)C2` (stereo not drawn) [Example 167, N-{6-[4-(1,1-dimethyl-propyl)-benzenesulfonylamino]-5,6,7,8-tetrahydro-quinazolin-2-yl}-butyramide] yielded an inhibition at 1 µM at 5-HT transporter of 32%.

With `O=C(Nc1ncc2c(n1)CCN(S(=O)(=O)c1cccc(Br)c1)C2)c1cccc(Cl)c1` [Example 125, N-[6-(3-bromo-benzenesulfonyl)-5,6,7,8-tetrahydro-pyrido[4,3-d]pyrimidin-2-yl]-3-chloro-benzamide], at NA transporter, at 10 µM the inhibition was 70%. Moreover, on 5-HT transporter, the inhibition at 1 µM was 43%.

In turn, `COc1ccc(S(=O)(=O)N2CCc3nc(NC(=O)c4ccc(F)cc4)ncc3C2)cc1` [Example 185, 4-fluoro-N-[6-(4-methoxy-benzenesulfonyl)-5,6,7,8-tetrahydro-pyrido[4,3-d]pyrimidin-2-yl]-benzamide] returned an inhibition at 10 µM against NA transporter of 36%.

As to `COc1cccc(C(=O)Nc2ncc3c(n2)CCN(C(=O)c2cccc(OC(F)(F)F)c2)C3)c1` [Example 199, 3-methoxy-N-[6-(3-trifluoromethoxy-benzoyl)-5,6,7,8-tetrahydro-pyrido[4,3-d]pyrimidin-2-yl]-benzamide], the inhibition at 10 µM against NA transporter is 52%.

In the case of `CC(C(=O)N1CCc2nc(NC(=O)c3ccccc3)ncc2C1)c1ccc(Cl)cc1` (stereo not drawn) [Example 176, N-{6-[2-(4-chloro-phenyl)-propionyl]-5,6,7,8-tetrahydro-pyrido[4,3-d]pyrimidin-2-yl}-benzamide], at NA transporter, the inhibition at 10 µM turned out to be 38%.

Take `O=C(Nc1ncc2c(n1)CCC(NS(=O)(=O)Cc1ccccc1)C2)c1cccs1` (stereo not drawn) [Example 165, thiophene-2-carboxylic acid (6-phenylmethanesulfonylamino-5,6,7,8-tetrahydro-quinazolin-2-yl)-amide]: at 5-HT transporter, testing at 1 µM gave an inhibition of 35%.

`Cc1ccc(C(=O)Nc2ncc3c(n2)CCN(C(=O)c2ccc(SC(F)(F)F)cc2)C3)cc1` [Example 148, 4-methyl-N-[6-(4-trifluoromethylsulfanyl-benzoyl)-5,6,7,8-tetrahydro-pyrido[4,3-d]pyrimidin-2-yl]-benzamide] displayed an inhibition at 1 µM against 5-HT transporter of 32%.

On 5-HT transporter, `CCCS(=O)(=O)NC1CCc2nc(NC(=O)c3ccc(F)cc3)ncc2C1` (stereo not drawn) [Example 160, 4-fluoro-N-[6-(propane-1-sulfonylamino)-5,6,7,8-tetrahydro-quinazolin-2-yl]-benzamide] showed an inhibition at 1 µM of 40%.

The compound `COc1cccc(C(=O)Nc2ncc3c(n2)CCN(C(=O)c2cccc(F)c2F)C3)c1` [Example 80, N-[6-(2,3-difluoro-benzoyl)-5,6,7,8-tetrahydro-pyrido[4,3-d]pyrimidin-2-yl]-3-methoxy-benzamide] yielded an inhibition at 10 µM against NA transporter of 54%.

For `CC(C)(C)OC(=O)NCCC(=O)NC1CCc2nc(NC(=O)c3cccs3)ncc2C1` (stereo not drawn) [Example 149, (2-{2-[(thiophene-2-carbonyl)-amino]-5,6,7,8-tetrahydro-quinazolin-6-ylcarbamoyl}-ethyl)-carbamic acid tert-butyl ester], the inhibition at 1 µM against 5-HT transporter was 32%.

With `CC1(C)C2CCC1(CS(=O)(=O)N1CCc3nc(NC(=O)c4cccc(F)c4)ncc3C1)C(=O)C2` (stereo not drawn) [Example 102, N-[6-(7,7-dimethyl-2-oxo-bicyclo[2.2.1]hept-1-ylmethanesulfonyl)-5,6,7,8-tetrahydro-pyrido[4,3-d]pyrimidin-2-yl]-3-fluoro-benzamide], at 5-HT transporter, the inhibition at 1 µM was determined as 63%.

On to `COc1ccccc1C(=O)Nc1ncc2c(n1)CCN(S(=O)(=O)c1ccc(Cl)s1)C2` [Example 86, N-[6-(5-chloro-thiophene-2-sulfonyl)-5,6,7,8-tetrahydro-pyrido[4,3-d]pyrimidin-2-yl]-2-methoxy-benzamide], for which, on NA transporter, the inhibition at 10 µM is 32%.

At 5-HT transporter, `CCCC(=O)Nc1ncc2c(n1)CCC(NS(=O)(=O)CC13CCC(CC1=O)C3(C)C)C2` (stereo not drawn) [Example 162, N-[6-(7,7-dimethyl-2-oxo-bicyclo[2.2.1]hept-1-ylmethanesulfonylamino)-5,6,7,8-tetrahydro-quinazolin-2-yl]-butyramide] had an inhibition at 1 µM of 29%.

On to `COc1ccccc1C(=O)Nc1ncc2c(n1)CCN(C(=O)COCc1ccccc1)C2` [Example 195, N-[6-(2-benzyloxy-acetyl)-5,6,7,8-tetrahydro-pyrido[4,3-d]pyrimidin-2-yl]-2-methoxy-benzamide], for which, on NA transporter, the inhibition at 10 µM was 31%.

`CCOC(=O)CC(=O)N1CCc2nc(NC(=O)c3cccc(Cl)c3)ncc2C1` [Example 124, 3-[2-(3-chloro-benzoylamino)-7,8-dihydro-5H-pyrido[4,3-d]pyrimidin-6-yl]-3-oxo-propionic acid ethyl ester] displayed an inhibition at 10 µM against NA transporter of 65%.

In turn, `Cc1ccc([N+](=O)[O-])cc1S(=O)(=O)N1CCc2nc(NC(=O)c3ccccc3F)ncc2C1` [Example 150, 2-fluoro-N-[6-(2-methyl-5-nitro-benzenesulfonyl)-5,6,7,8-tetrahydro-pyrido[4,3-d]pyrimidin-2-yl]-benzamide] displayed an inhibition at 1 µM at 5-HT transporter of 54%.

Regarding `CCN(CC)C(=O)CCC(=O)N1CCc2nc(NC(=O)c3cc(Cl)cc(Cl)c3)ncc2C1` [Example 171, 3,5-dichloro-N-[6-(3-diethylcarbamoyl-propionyl)-5,6,7,8-tetrahydro-pyrido[4,3-d]pyrimidin-2-yl]-benzamide], 1 µM produced 32% inhibition against 5-HT transporter.

Consider `CCc1ccc(C(=O)Nc2ncc3c(n2)CCN(C(=O)c2ccc4ncccc4c2)C3)cc1` [Example 173, 4-ethyl-N-[6-(quinoline-6-carbonyl)-5,6,7,8-tetrahydro-pyrido[4,3-d]pyrimidin-2-yl]-benzamide], for which the inhibition at 1 µM against 5-HT transporter was 69%.

`O=C(Nc1ncc2c(n1)CCN(S(=O)(=O)c1cccs1)C2)c1ccc(F)c(F)c1` [Example 72, 3,4-difluoro-N-[6-(thiophene-2-sulfonyl)-5,6,7,8-tetrahydro-pyrido[4,3-d]pyrimidin-2-yl]-benzamide] returned an inhibition at 10 µM against NA transporter of 41%.

On 5-HT transporter, `O=C(NC1CCc2nc(NC(=O)c3cccs3)ncc2C1)c1cc(F)cc(F)c1` (stereo not drawn) [Example 97, thiophene-2-carboxylic acid [6-(3,5-difluoro-benzoylamino)-5,6,7,8-tetrahydro-quinazolin-2-yl]-amide] came in with an inhibition at 1 µM of 30%.
